Results as given in article PMC11083769, “Characterization and pharmacokinetics of cinnamon and star anise compound essential oil pellets prepared via centrifugal granulation technology” (BMC Veterinary Research, 2024).
Values after ≈ are worked out from the molar mass of the structure shown. Marks after values point to notes of the source that are not given here.

Key:
[1] = Pharmacokinetics of compound essential oil pellets in pig model; assay type: in vivo; settings: single dose, n = 6
From the text: Six healthy Landrace × Large White hybrid pigs were randomly divided into three groups for pharmacokinetic experiments and were purchased from JuCong Agriculture, Nanning, Guangxi. During the adaptation period, the temperature of the breeding environment was 18–25℃, the relative humidity was 50–65%, and commercial feed and water free of antibiotics and target drugs were freely available to the pigs housed individually in six pig pens. After the experiment, the pigs were released.
After one week in the experimental setting, the pigs were labelled with numbers 1–6, randomly divided into 3 groups, and weighed before the experiment. […] Compound essential oil pellets were orally administered at three different doses of 50, 100 and 200 mg/kg. Three cycles of crossover trials were performed with 6 pigs, with each cycle separated by 7 days. 5 mL of blood was collected from the anterior vena cava at different time points after administration, centrifuged at 3000 r/min for 10 min, after which the plasma was separated. The drug concentration in the plasma was detected by GC‒MS/MS after pretreatment.
The average drug-time curve of each group was drawn. WinNonlin version 5.2.1 was used to calculate the pharmacokinetic parameters.
The compound essential oil pellet concentration was measured using GC‒MS/MS. The chromatographic conditions were as follows. A PEG-20 M column (30 m × 0.32 mm, 0.25 μm) was used. The temperature was increased from 90 ℃ to 160 ℃ at a heating rate of 10 ℃/min, held for 5 min, further increased from 160 ℃ to 280 ℃ at a heating rate of 20 ℃/min and held for 2 min.

[2] = system: Staphylococcus aureus Newman strain; parameters: method as in PMID 32185411; settings: cited from earlier work
[3] = oral compound essential oil pellets 50 mg/kg
[4] = oral compound essential oil pellets 100 mg/kg
[5] = oral compound essential oil pellets 200 mg/kg

SMILES: O=C/C=C/c1ccccc1 [cinnamaldehyde, Cinnamaldehyde]
- AUC0−∞ of plasma cinnamaldehyde [1, 3]: 1433.11 ± 21.30^a h·µg/L
- CL of plasma cinnamaldehyde [1, 3]: 18.69 ± 1.81^ac L/h/kg
- Cmax of plasma cinnamaldehyde [1, 3]: 58.81 ± 6.16^a µg/L
- MRT0−∞ of plasma cinnamaldehyde [1, 3]: 20.96 ± 0.21^a h
- T1/2 of plasma cinnamaldehyde [1, 3]: 14.52 ± 0.14^a h
- Tmax of plasma cinnamaldehyde [1, 3]: 2.00 h
- Vz of plasma cinnamaldehyde [1, 3]: 1205.24 ± 149.37^ab L/kg
- AUC0−∞ of plasma cinnamaldehyde [1, 4]: 467.05 ± 141.28^d h·µg/L
- CL of plasma cinnamaldehyde [1, 4]: 142.48 ± 40.58^d L/h/kg
- Cmax of plasma cinnamaldehyde [1, 4]: 37.57 ± 5.56^d µg/L
- MRT0−∞ of plasma cinnamaldehyde [1, 4]: 17.62 ± 1.84^d h
- T1/2 of plasma cinnamaldehyde [1, 4]: 12.21 ± 1.27^d h
- Tmax of plasma cinnamaldehyde [1, 4]: 2.00 h
- Vz of plasma cinnamaldehyde [1, 4]: 7671.46 ± 1809.86^d L/kg
- AUC0−∞ of plasma cinnamaldehyde [1, 5]: 1653.25 ± 295.40 µg·h/L
- CL of plasma cinnamaldehyde [1, 5]: 56.85 ± 15.32 L/h/kg
- Cmax of plasma cinnamaldehyde [1, 5]: 64.18 ± 2.33 µg/L
- MRT0−∞ of plasma cinnamaldehyde [1, 5]: 20.68 ± 0.61 h
- T1/2 of plasma cinnamaldehyde [1, 5]: 14.33 ± 0.42 h
- Tmax of plasma cinnamaldehyde [1, 5]: 2.00 h
- Vz of plasma cinnamaldehyde [1, 5]: 4593.67 ± 625.29 L/kg

SMILES: C/C=C/c1ccc(OC)cc1 [trans-anethole, Trans-anethole]
- MIC [2]: 49.4 mg/mL (≈ 333 mM)
